Among the data in patent US5177096A, “Substituted 5-((tetrazolyl)alkenyl)imidazoles and pharmaceutical methods of use thereof” (SmithKline Beecham Corporation, priority 1990, dated 1993) are ED50 values, retold here.

Structures are written as SMILES. Like-named read-outs stand apart in the source and are kept apart here.

The assay deals with pressor response to angiotensin II. The assay can be described thus: Inhibition of pressor response to angiotensin II in conscious rats. The settings on record: Rattus norvegicus, read-out: IC50 (dose of compound needed to produce 50% inhibition of the control response to angiotensin II). It is filed as in vivo. As to the method: Angiotensin II antagonist activity of the compounds of Formula (I) is assessed by in vitro and in vivo methods. In vitro antagonist activity is determined by the ability of the compounds to compete with ^125 I-angiotensin II for binding to vascular angiotensin II receptors and by their ability to antagonize the contractile response to angiotensin II in the isolated rabbit aorta. In vivo activity is evaluated by the efficacy of the compounds to inhibit the pressor response to exogenous angiotensin II in conscious rats and to lower blood pressure in a rat model of renin dependent hypertension.
Rats are prepared with indwelling femoral arterial and venous catheters and a stomach tube (Gellai et al., Kidney Int. 15:419, 1979). Two to three days following surgery the rats are placed in a restrainer and blood pressure is continuously monitored from the arterial catheter with a pressure transducer and recorded on a polygraph. The change in mean arterial pressure in response to intravenous injections of […] angiotensin II is compared at various time points prior to and following the administration of the compounds intravenously or orally at doses of 3 to 300 mg/kg. The dose of compound needed to produce 50% inhibition of the control response to angiotensin II (IC50) is used to estimate the potency of the compounds.

With `CCCCc1ncc(/C=C(\Cc2cccs2)c2nnn[nH]2)n1Cc1ccccc1Cl` [Example 1, (E)-1-[2-n-Butyl-1-{(2-chlorophenyl)methyl}-1H-imidazol-5-yl]-2-(1H-tetrazol-5-yl)-3-(2-thienyl)-1-propene], the ED50 is, setting by setting: (iv) 8 mg/kg; (po, orally) 13 mg/kg.
